Row | Structure (SMILES) | melting point
1 | C=CC1(C)CC(OC(=O)CO)C2(C)C(C)CCC3(CCC(=O)C32)C(C)C1O (stereo not given) | 170 °C
2 | Cc1cc(-c2ccccc2)n2nc(C(F)(F)F)nc2n1 | 89 °C
3 | CCCCCCCC/C=C\CCCCCCCCCCCC(=O)O | 33.5 °C
4 | O=[N+]([O-])c1ccccc1-c1nc(-c2ccccc2)c(-c2ccccc2)[nH]1 | 235 to 238 °C
5 | CCC1C(C#N)=C(N)Oc2c1c(=O)oc1ccccc21 (stereo not given) | 233 to 237 °C
6 | CSc1nc(N)c2ccccc2n1 | 233 to 235 °C
7 | CSC#N | -5 °C
8 | CCCOc1ccc(C(N)=NO)cc1 | 105 to 106 °C
9 | CC=CC(C)C | -120 °C
10 | Clc1cc(Br)ccc1Br | 40 °C
11 | Cc1c(C#N)[nH]c2ccccc12 | 102 to 104 °C
12 | CN(C)C(=O)C(C(F)(F)F)C(F)(F)F | 54 °C
13 | CC(C)C1=CCC2C(=C1)CCC1C(C)(C(=O)O)CCCC21C (stereo not given) | 150 °C
14 | N#Cc1ccc(N2CCCNCC2)nc1 | 63 to 65 °C
15 | NC(=S)Nc1ccc(C(F)(F)F)cc1 | 144 to 145 °C
16 | CC1=NN(c2ccccc2)C(=O)/C1=N\Nc1ccc(C(=O)O)cc1 | 313 °C
17 | FC12CC3CC(CC(C3)C1)C2 | 225 °C
18 | COC(=O)C1(C)CCC(CCc2ccccc2)C1(C)C (stereo not given) | 44 °C
19 | O=[N+]([O-])c1ccc(C(Br)C(Br)c2ccc(C(Br)C(Br)c3ccc([N+](=O)[O-])cc3[N+](=O)[O-])cc2)c([N+](=O)[O-])c1 (stereo not given) | 265 °C
20 | C(=Cc1ccc2ccc3ccccc3c2c1)c1ccc2ccccc2c1 | 213 °C
21 | CC1COC(=O)O1 (stereo not given) | -48.8 °C
22 | CCCc1ccc(C(=O)CCC(=O)O)cc1 | 117 to 119 °C
23 | Cn1nc(CCl)cc1-c1ccco1 | 72 to 73 °C
24 | O=C(CBr)c1ccco1 | 34 °C
25 | NC(Cc1ccc(N(CCCl)CCCl)cc1)C(=O)O (stereo not given) | 182 °C
26 | COc1cc(Br)c(C=CC(=O)O)cc1OC | 253 to 259 °C

Row | Structure (SMILES) | melting point
27 | Nc1nc2ccccc2n1Cc1ccc(F)cc1 | 191 to 193 °C
28 | COc1ccc(-c2csc(/C(C#N)=N\Nc3ccc(Br)cc3)n2)cc1 | 196 °C
29 | Cc1ccc(-n2c(=O)cc(C)n2C)cc1 | 130 to 137 °C
30 | O=C(O)c1cc2cc([N+](=O)[O-])ccc2o1 | 274 to 275 °C
31 | CCCCCC1CCCC1 | -83 °C
32 | CCOC(=O)c1cnn(-c2ccccc2)c1N | 99.5 °C
33 | O=C(O)C(C(=O)O)c1ccccc1 | 153 to 155 °C
34 | CCC(=O)N1C(=O)OC[C@@H]1Cc1ccccc1 | 42 to 44 °C
35 | O=S(=O)(O)c1ccc2cc(O)ccc2c1 | 125 °C
36 | O=[N+]([O-])c1ccc(O)c(CBr)c1 | 145 to 149 °C
37 | CC(=O)OCC1OC(n2ncc(=O)[nH]c2=O)C(OC(C)=O)C1OC(C)=O (stereo not given) | 99 to 101 °C
38 | Cc1ccc(N/N=C(/C#N)c2nc(-c3ccc(Cl)cc3)cs2)cc1 | 208 °C
39 | Cc1cc2c(C#N)c3ccc4ccccc4n3c(=O)c2c(C)n1 | 243 °C
40 | N#Cc1cccc(-n2cccc2C=O)c1 | 139 to 141 °C
41 | COc1cc(CCC(=O)O)cc(OC)c1OC | 104 °C
42 | O=C(O)C1CC(c2ccccc2)CCC1C(=O)c1ccccc1 (stereo not given) | 184 to 187 °C
43 | O=c1[nH]c2scc(-c3ccccc3)c2c(=O)n1-c1cccc(C(F)(F)F)c1 | 231 to 233 °C
44 | Cc1cccc(N(C)C(=S)Oc2ccc3c(c2)C2CCC3C2)c1 (stereo not given) | 93 °C
45 | CCCCCCCCC(=O)NCc1ccc(O)c(OC)c1 | 57 °C
46 | c1ccc(-n2ccnc2)cc1 | 13 °C
47 | Cc1ccc(SSc2ccc(C)cc2)cc1 | 47.5 °C
48 | Nc1ccc([N+](=O)[O-])cc1O | 208 °C
49 | COC(=O)c1ccc(C(F)(F)F)cc1 | 14 °C
50 | CCc1c(C)nc(N)nc1Cl | 213 to 214 °C
51 | NNC(=O)CN1c2ccccc2Sc2ccccc21 | 216 to 218 °C
52 | Cc1cc2c(cc1C)CCCC2 | 10 °C

Row | Structure (SMILES) | melting point
53 | Cc1cc(Oc2ccc(C(N)=NO)cc2[N+](=O)[O-])cc(C)c1Cl | 183 to 185 °C
54 | CCC1Oc2ccccc2C(=O)NC1=O (stereo not given) | 162 to 164 °C
55 | O=C(O)c1ccc(-c2cccs2)cc1 | 240 to 244 °C
56 | CC(C)(C)c1cc(O)ccc1O | 128 °C
57 | O=C(O)c1ccc(Br)c([N+](=O)[O-])c1 | 204 °C
58 | O=C1Nc2c(Cl)ccc(Cl)c2C1=O | 251 to 254 °C
59 | COc1cccc2oc(-c3ccccc3)cc(=O)c12 | 130 °C
60 | N#Cc1c(C(F)(F)F)cc(-c2cccs2)n(N)c1=O | 234 °C
61 | O=CC(C=O)c1ccc2ccccc2n1 | 198 to 202 °C
62 | NC(=O)c1ccco1 | 141 °C
63 | Brc1ccc(Oc2ccccc2)cc1Br | < 20 °C
64 | N#Cc1ccc(Oc2ccccc2)cc1 | 45 to 48 °C
65 | O=C1NN(c2ccccc2)C(=O)C1=C1SC=C(c2ccccc2)S1 | 288 to 290 °C
66 | CC(=O)CCc1ccc(CCC(C)=O)c([N+](=O)[O-])c1 | 58 °C
67 | COc1cc(C=C[N+](=O)[O-])ccc1OCc1ccccc1 | 123 °C
68 | COc1ccc2c(c1)c(C=O)cn2C | 135 °C
69 | O=C(Nc1c(Cl)cc(Cl)cc1Cl)C(C(F)(F)F)C(F)(F)F | 218 to 220 °C
70 | Nc1nc(Cl)c2ncn(C3OC(CO)C(O)C3O)c2n1 (stereo not given) | 166 to 167 °C
71 | Cc1ccc2cnccc2c1 | 85.5 °C
72 | CC1=CC(=O)C(C(C)C)=CC1=O | 45.5 °C
73 | C=CCN(CC=C)C(=O)COC(=O)c1ccccc1 | 42.5 °C
74 | Cc1cccc(N/N=C2/C(=O)N(c3ccccc3)N=C2C(F)(F)F)c1C | 136 °C
75 | Cc1nsc(-c2ccc(Cl)cc2)n1 | 81 to 83 °C
76 | O=Cc1ccccc1N1CCN(Cc2ccccc2)CC1 | 58 to 60 °C
77 | c1ccc2c(c1)cc1ccc3cccc4c5ccccc5c2c1c34 | 162 °C
78 | O=P(N1CC1)(N1CC1)N(N=Cc1ccc(Cl)cc1)c1ccccc1 | 136 °C

Row | Structure (SMILES) | melting point
79 | O=[N+]([O-])c1ccc(-c2nnc3n2CN(c2ccccc2[N+](=O)[O-])CS3)cc1 | 183 to 185 °C
80 | CS(=O)(=O)c1ccc(C(=O)CBr)cc1 | 126 to 128 °C
81 | Nc1ccc(Cc2ccc(N)c(Cl)c2)cc1Cl | 110 °C
82 | c1ccc2c(c1)ccc1ccc3ccccc3c12 | 68 °C
83 | Oc1cc(F)cc(F)c1 | 53 °C
84 | O=C1NC(=O)C(Cl)C(=O)N1 | 320 °C
85 | Cc1ccc2sc(Br)cc2c1 | 92 to 93 °C
86 | O=S(=O)(Cl)c1cc(Cl)cc(Cl)c1 | 53 to 57 °C
87 | O=C(O)c1cc([N+](=O)[O-])cnc1O | 246 °C
88 | O=C(O)c1ccc(-c2cncnc2)cc1 | 316 to 317 °C
89 | ClCc1cccc(-c2ncccn2)c1 | 68 to 70 °C
90 | OCCCCCCCCCCl | 28 °C
91 | CCCOc1ccc([N+](=O)[O-])cc1N | 49 °C
92 | Cc1ccc(Cl)nn1 | 57 °C
93 | Nc1ncccc1C=O | 101 °C
94 | CCCCCCCCCCCCCCCCCCCC(=O)OCC | 50 °C
95 | CSc1ccc2c(c1)N(CCC1CCCCN1C)c1ccccc1S2 (stereo not given) | 73 °C
96 | NCc1cccc(-c2ccsc2)c1 | 80 °C
97 | COc1ccc(CCNc2ccccc2N)cc1OC | 78 to 80 °C
98 | Cc1ccc(O)c2c1CCC2 | 82 to 83 °C
99 | CCCCCCCCCCCCCCCCCCCCCCCCCCCCCC[Si](C)(C)Cl | 60 to 80 °C
100 | O=C(O)c1ccc(C#Cc2ccccc2)o1 | 212 to 213 °C
101 | COC(=O)c1ccc(Cl)cc1[N+](=O)[O-] | 44 °C
102 | Cc1cc(Cl)ccc1N=CN(C)C | 35 °C
103 | Cc1cccc2cccnc12 | -80 °C
104 | O=C(O)C(O)(c1ccccc1)C1CCCCC1 (stereo not given) | 163 to 164 °C

Row | Structure (SMILES) | melting point
105 | CCCCCCCCOC(=O)CCC | -55.6 °C
106 | O=C1CSc2ccccc2N1 | 178 to 181 °C
107 | COc1c(Br)ccc(C)c1C(=O)O | 125 °C
108 | c1ccc(C(CCN2CCCCC2)c2ccccc2)cc1 | 41 °C
109 | CCOC(=O)c1nn(-c2ccc(C)cc2)c(C)c1C(=O)C1=NOC2C(=O)N(c3ccc(C(=O)O)cc3)C(=O)C12 (stereo not given) | 281 °C
110 | NCc1ccc(S(N)(=O)=O)cc1 | 151 °C
111 | CC(C)(C)c1cc(C(=Nc2ccccc2)Nc2ccccc2)cc(C(C)(C)C)c1O | 130 to 131 °C
112 | COC(=O)c1scc(Br)c1OC | 73 to 74 °C
113 | Oc1ccc(C=Cc2cc(O)cc(O)c2)cc1 | 254 °C
114 | Cn1c(=O)c(C2=NNC(=O)C2=NNc2cccnc2)c(O)c2ccccc21 | 230 °C
115 | CCOC(=O)CCC(=O)O | 8 °C
116 | Cc1cc(C)nc(S)n1 | 213 to 217 °C
117 | Sc1nc(-c2ccccc2)cs1 | 174 °C
118 | Cc1ccc(C#N)n1C | 53 to 56 °C
119 | NNC(=O)COc1ccc(OC(F)(F)F)cc1 | 130 to 133 °C
120 | Cc1cn(CCC(=O)O)c2ccccc12 | 87 to 88 °C
121 | Cc1nn(-c2ccccc2)nc1C(=O)NNC(=S)Nc1ccccc1 | 205 to 206 °C
122 | CCOC(=O)C1=C(C)NC(=O)NC1c1ccco1 (stereo not given) | 206 °C
123 | COc1ccc(C=CC(=O)c2ccc3ccccc3c2)cc1 | 92 to 95 °C
124 | CCCCCCCCC=CCCCCCCCC(=O)O | 45 °C
125 | CC1=C(C)C(=O)C=CC1=O | 55 °C
126 | CCCCCCCCCCCCCCC(C)C | 4 °C
127 | Nc1nnc(SCC(=O)Nc2ccc3c(c2)OCO3)s1 | 196 to 198 °C
128 | ClCC(Cl)C(Cl)=C(Cl)C(Cl)CCl (stereo not given) | 58.5 °C
129 | O=C(O)c1cc2cccnc2s1 | 293 to 294 °C
130 | N#CC1(C(=O)c2ccccc2)C(c2ccccc2)NC(=O)NC1c1ccccc1 (stereo not given) | 215 to 216 °C

— a melting point compilation (Tetko et al.)
